Molecules are shown by their SMILES. Converted amounts (≈) assume the structure as drawn. Counter-ions that a name gives are not always drawn. Like-named read-outs stand apart in the source and are kept apart here.

In one data set the test system is A. aerogenes (62.1). Description: MIC, serial dilutions in plates, A. aerogenes. The data set is classed as cell-based. The note with it: Klebsiella aerogenes. The protocol: (§1) The antibacterial spectrum and minimal inhibitory concentration (MIC) of typical compounds of the present invention are determined by one or more standard techniques. Thus, for example, serial dilutions of the compound being tested are made in tubes of rich medium containing no peptide […] (Atherton et al., 1979) or in plates containing the same medium plus agar. Series of tubes or plates of agar containing different concentrations of the test compound are inoculated with the cultures utilized to determine activity. After incubation for 24 hours at 37° C., the inoculated tubes or agar plates are examined for the inhibition of bacterial growth and an MIC is determined therefrom.
(§2) The following example illustrates the in vitro activity of the compounds of this invention against a variety of pathogenic organisms.
(§3) *Serial dilutions in plates as described by Atherton et al. (1979).

The subject of the next data set is E. coli (PR7). In words: MIC, serial dilutions in plates, E. coli. It is filed as cell-based. As to conditions: Escherichia coli. As to the method:
as §1, §2, §3

Data set [1] relates to P. aerogerosa (ATCC 25619). Description: MIC, serial dilutions in plates, P. aerogerosa. It is filed as cell-based. As to the method: as §1, §2, §3
Data set [2] is described as follows: In vivo studies: serum levels in mice by bioassay. Further details: species or system CFW mice. The note with it: for Serum half-life: mice. The protocol:
Groups of 3 fasted CFW mice (20 g±2) were dosed subcutaneously with 20, 50 or 100 mg/kg or orally with 50 or 100 mg/kg of δ-fluoro-ε-carboxylysyl-L-alanyl-L-alanine. At intervals of from 10 min to 210 min, after dosing animals were anesthetised with ether, and heparinized blood samples obtained by eye-puncture. Samples were kept on ice and the plasma removed. After dilution (1:1) with saline, aliquots were assayed for δ-fluoro-ε-carboxylysyl-L-alanyl-alanine by bioassay.
The antibacterial activity of δ-fluoro-ε-carboxylysyl-L-alanyl-alanine was determined by plate assay on "Roche" agar medium (adjusted to pH 6,5-see Atherton et al. (1979) using Aerobacter aerogenes as the test strain. Standard solutions of δ-fluoro-ε-carboxylysyl-L-alanyl-alanine were prepared by suitable dilutions in water (from the same solution used for injection) and 0,4 μg to 7,0 μg were applied to sterile discs (9 mm dia.) concomittently with serum samples. After overnight incubation at 37° C., zones of inhibition were measured across two diameters. A standard plot of zone diameter vs log. concentration of standards was prepared. The average serum concentration of δ-fluoro-ε-carboxylysyl-L-alanyl-alanine from 3 mice was taken from this standard plot. Control serum had no activity and 50% serum had no effect on the standard plot.

Data set [3] relates to S. marcescens (ATCC 8100). Description: MIC, serial dilutions in plates, S. marcescens. The note with it: Serratia marcescens, ATCC8100. It is filed as cell-based. The protocol:
as §1, §2, §3

Data set [4] has as its target T1, Escherichia coli DAP-epimerase (E.C. 5.1.1.7) (Escherichia coli, UniProt P0A6K1).
T1 construct: endogenous in cells; host or cells: E. coli PR7; Endogenous enzyme purified by ammonium sulfate 30-45%, DE52 and Matrix green A dye-ligand column
In words: Inhibition of Escherichia coli DAP-epimerase (E.C. 5.1.1.7). It is filed as biochemical, Escherichia coli (PR7). The protocol:
Strains were inoculated into Nutrient bath (5 ml) and grown up overnight (16 hours) at 37° C. Small amounts of cells were obtained in shake flask cultures (50 ml-1000 ml) obtained by innoculating Igarashi medium (Igarashi et al., 1979), with 2% of the starter culture. Cells were harvested at late-log (OD 540 nm 0,7-0,8) and rinsed before storage at -20° C. Larger amounts of cells were obtained using an overnight culture (Igarashi medium) of 2,5 l as innoculum for 80 l of Igarashi medium in a Biolaffite Fermenter. Cells were harvested in late-log (OD 540 nm 2.0) using a filtration system for cell concentration (40 fold) followed by centrifugation.
Cells from E. Coli (PR7), usually in batches of 40 g, were suspended in 100 ml buffer A (20 mM potassium phosphate 1 mM EDTA, 1 mM DTT, pH 7.0) by using the Ultraturrax apparatus (10 min). Passage through the French press (20,000 lbs/sq ins) and centrifugation 30,000 xg for 20 min gave the S30 crude extract. The supernatent was fractionated by adding solid ammonium sulfate to 30%, centrifugation was followed by further ammonium sulfate to 45%. The precipitated protein was dissolved in buffer to give a final volume of 10 ml which was dialysed overnight against 2,000 ml of buffer A.
The dialysed crude enzyme preparation was applied to a DEAE-cellulose column (2.3×49 cms) DES52, equilibrated with buffer A. The column was washed with 250 ml of buffer A and eluted with a linear gradiant formed by adding 250 ml of buffer A containing 0,22M KCl to 250 ml of buffer A. The flow rate was 25 ml/hr and 10 ml fractions were collected. DAP-epimerase eluted near the end of the gradiant at approximately 0,20M KCl. Pooled fractions containing DAPepimerase activity were dialysed overnight against 2,000 ml buffer A. Enzyme was concentrated by applying the dialysate to a smal DES52 column (0.9×10 cms), rinsing with 50 ml of buffer A and eluting with buffer A containing 0,50M KCl. The flow-rate was 20 ml/hr and 2,5 ml fractions were collected. Enzyme activity eluted immediately and pooled fractions were dialized against 1,000 ml buffer A.
A final purification step was obtained by applying the concentrated dialysed enzyme to a dye ligand column (1,4×5 cms), Matrix green A, rinsing with 50 ml buffer A and then eluting with 50 ml of buffer A containing 1,2M […] collecting 5 ml fractions. Pooled fractions were dialysed and concentrated on a small DE52 as described above.
(§4) DAP-epimerase activity was routinely measured at 25° C. Reaction mixtures contained 0.1M Tris HCl (pH 7,8), 1 mH EDTA, 1 mM DTT and […] of [G-^3 H]DAP in a total volume of 0.10 ml. After incubation for 40 min, reaction mixtures were quenched with 0.5 ml of 10% TCA and applied to 1 ml of AG50×4 ion-exchange resin (H' form) contained in a column (about 0.4×2 cms) fashioned from a blue pipette cone. The column was washed with 3×0.5 ml of water and the combined eluants counted for radioactivity.
(§5) In vitro DAP-epimerase, purified as described above, was incubated at 25° C. with various concentrations of δ-fluoro-ε-carboxylysine (usually 0, 10, 20, 40, 80 and […]) as described in the enzyme assay above.
*Values determined by Dixon plots (Ref. Dixon, M., 1972).

For data set [5], the target named is T2, DAP-epimerase (EC 5.1.1.7) (Pseudomonas aeruginosa, UniProt Q51564).
T2 construct: **DAPepimerase was partially purified from each organism as described; endogenous in cells; host or cells: Pseudomonas aeruginosa ATCC 25619; Purified through the first DE52 column
T2 sequence (Q51564 1-276): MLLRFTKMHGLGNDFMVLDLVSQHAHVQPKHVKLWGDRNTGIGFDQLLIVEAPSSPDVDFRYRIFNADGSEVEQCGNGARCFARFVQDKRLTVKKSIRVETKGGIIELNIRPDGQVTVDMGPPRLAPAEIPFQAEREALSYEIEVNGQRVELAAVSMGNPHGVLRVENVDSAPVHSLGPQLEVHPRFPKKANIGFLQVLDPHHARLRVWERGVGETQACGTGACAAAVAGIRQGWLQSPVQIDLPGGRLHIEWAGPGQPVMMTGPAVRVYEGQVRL
Description: Inhibition of DAP-epimerase partially purified from Pseudomonas aerogenosa. The data set is classed as biochemical, Pseudomonas aerogenosa (ATCC 25619). As to conditions: enzyme partially purified from P. aerogerosa (ATCC 25619) through to the first DE52 column. The protocol: as §4, §5
(§6) **DAPepimerase was partially purified from each organism as described
(§7) (Example VII) through to the first DE52 column except that with Aerobacte

In data set [6] the target is T3, DAP-epimerase (EC 5.1.1.7) (Serratia marcescens, UniProt A0A0G3SSC4).
T3 sequence (A0A0G3SSC4 1-274): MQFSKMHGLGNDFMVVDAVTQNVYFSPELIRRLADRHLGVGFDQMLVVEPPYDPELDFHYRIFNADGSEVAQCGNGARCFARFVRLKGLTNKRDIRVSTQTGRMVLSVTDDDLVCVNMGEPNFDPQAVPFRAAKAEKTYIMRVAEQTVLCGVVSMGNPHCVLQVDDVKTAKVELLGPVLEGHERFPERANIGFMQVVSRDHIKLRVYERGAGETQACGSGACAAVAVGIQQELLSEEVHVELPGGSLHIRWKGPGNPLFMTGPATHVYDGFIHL
In words: Inhibition of DAP-epimerase partially purified from Serratia marcescens. It is filed as biochemical, Serratia marcescens (ATCC 8100). The note with it: enzyme partially purified from S. marcescens (ATCC 8100) through to the first DE52 column. As to the method:
as §4, §5, §6, §7

T1 sequence (P0A6K1 whole entry): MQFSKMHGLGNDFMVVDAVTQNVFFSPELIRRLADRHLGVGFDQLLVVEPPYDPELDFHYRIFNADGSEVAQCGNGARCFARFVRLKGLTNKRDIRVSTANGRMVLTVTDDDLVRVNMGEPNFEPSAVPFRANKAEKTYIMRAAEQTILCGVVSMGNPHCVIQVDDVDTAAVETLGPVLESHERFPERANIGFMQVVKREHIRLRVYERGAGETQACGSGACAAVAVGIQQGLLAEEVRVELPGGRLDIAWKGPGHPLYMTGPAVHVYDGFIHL

As to `C[C@H](NC(=O)[C@H](C)NC(=O)[C@@H](N)CCC(F)C(N)C(=O)O)C(=O)O` (stereo partly drawn) [δ-FLUORO-ε-CARBOXYLYSYL-L-ALANYL-L-ALANINE], the MIC was 12.5 mg/L (≈ 35.7 µM) with A. aerogenes (62.1), 12.5 mg/L (≈ 35.7 µM) in the data set with E. coli (PR7), 100 mg/L (≈ 285 µM) in data set [1] and 0.2 mg/L (≈ 0.571 µM) in data set [3]. Also, the Serum half-life worked out at 1.07 h in data set [2] (P.O. (printed on the 50 mg/kg line)) and 1.2 h in data set [2] (S.C. (printed on the 50 mg/kg line)). Further, the “Serum levels compared with minimum inhibition concentrations of infectious microorganisms” value in data set [2] (mouse, in vivo) is listed as “consistently above the minimum inhibition concentrations”.
With `NC(CCC(Cl)C(N)C(=O)O)C(=O)O` (stereo not drawn) [δ-chloro-ε-carboxylysine, 1,5-diamino-2-chloro-1,5-pentanedicarboxylic acid, dihydrochloride], the affinity in data set [4] corresponds to a Ki of 0.5 µM.
As for `NC(CCC(F)(F)C(N)C(=O)O)C(=O)O` (stereo not drawn) [δ,δ-difluoro-ε-carboxylysine, 1,5-diamino-2,2-difluoro-1,5-pentanedicarboxylic acid, dihydrochloride], the IC50 in data set [4] (purified E. coli DAP-epimerase, 25° C., read-out: IC50) turned out to be 50 µM.
Take `C[C@H](NC(=O)[C@@H](N)CCC(F)C(N)C(=O)O)C(=O)O` (stereo partly drawn) [δ-fluoro-ε-carboxylysylalanine, δ-Fluoro-ε-carboxylysyl-L-alanine]: the MIC was determined as 6 mg/L (≈ 21.5 µM) against A. aerogenes (62.1), 12.5 mg/L (≈ 44.8 µM) in the data set with E. coli (PR7), 0.8 mg/L (≈ 2.86 µM) in data set [1] and 0.2 mg/L (≈ 0.716 µM) in data set [3].
`NC(CCC(F)C(N)C(=O)O)C(=O)O` (stereo not drawn) [δ-fluoro-ε-carboxylysine, 3-fluoro-2,6-diaminopimelic acid]: the Ki was 5.4 µM in data set [5], 7.7 µM in data set [4] and 1 µM in data set [6]. Also, in data set [4], the IC50 was found to be 1.35 µM. Besides, the “Inhibition after aliquots were removed and diluted 50-fold with the assay medium” value in data set [4] (in vitro, enzyme incubated with inhibitor at 25° C., then diluted 50-fold) is on record as “no inhibition was observed”.

The values above are taken from US4730006A, “Derivatives of 2,6-diamino-3-haloheptanedioic acid” (Merrell Dow Pharmaceuticals Inc., priority 1986, dated 1988).
